Measured values as given in ChEMBL document CHEMBL1201862, “PubChem BioAssay data set” (2004).
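How tested: cells in 96-well plates exposed to compound for 48 hours at five concentrations. GI50 marks 50% less growth.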 Activity calls are given as the source filed them. No stated cut-off is given here; in the data, active = GI50 up to about 1.1 µM and inactive = higher.

Assays:
Assay in all cases: growth of human tumour cells (NCI), 48 h
A498 = test system: A498
CCRF-CEM = test system: CCRF-CEM
COLO 205 = test system: COLO 205
DU-145 = test system: DU-145
EKVX = test system: EKVX
HCT-15 = test system: HCT-15
HL-60 = test system: HL-60
HOP-92 = test system: HOP-92
K562 = test system: K562
M14 = test system: M14
MCF7 = test system: MCF7
MDA-MB-231 = test system: MDA-MB-231
MOLT-4 = test system: MOLT-4
NCI/ADR-RES = test system: NCI/ADR-RES
OVCAR-5 = test system: OVCAR-5
PC-3 = test system: PC-3
SNB-75 = test system: SNB-75
T47D = test system: T47D
UACC-257 = test system: UACC-257

Oc1c(Br)cc(CN(Cc2cc(Br)c(O)c(Br)c2)C2CCCCC2)cc1Br
GI50 (A498): > 100 µM (inactive)
GI50 (CCRF-CEM): > 100 µM (inactive)
GI50 (COLO 205): > 100 µM (inactive)
GI50 (DU-145): > 100 µM (inactive)
GI50 (EKVX): > 100 µM (inactive)
GI50 (HCT-15): > 100 µM
GI50 (HL-60): > 100 µM (inactive)
GI50 (HOP-92): > 100 µM (inactive)
GI50 (K562): > 100 µM (inactive)
GI50 (M14): > 100 µM (inactive)
GI50 (MCF7): > 100 µM (inactive)
GI50 (MDA-MB-231): > 100 µM (inactive)
GI50 (MOLT-4): > 100 µM (inactive)
GI50 (NCI/ADR-RES): > 100 µM (inactive)
GI50 (OVCAR-5): > 100 µM (inactive)
GI50 (PC-3): > 100 µM (inactive)
GI50 (SNB-75): > 100 µM (inactive)
GI50 (T47D): > 100 µM (inactive)
GI50 (UACC-257): > 100 µM (inactive)

COc1ccc(NC(=O)C(=O)C(CC2C(=O)NC(=S)NC2=O)C(=O)c2ccc3ccccc3c2)c([N+](=O)[O-])c1 (centres undefined)
GI50 (A498): > 100 µM (inactive)
GI50 (CCRF-CEM): 8.99 µM (inactive)
GI50 (COLO 205): > 100 µM (inactive)
GI50 (DU-145): > 100 µM (inactive)
GI50 (EKVX): > 100 µM (inactive)
GI50 (HCT-15): > 100 µM
GI50 (HL-60): > 100 µM (inactive)
GI50 (HOP-92): > 100 µM (inactive)
GI50 (K562): > 100 µM (inactive)
GI50 (M14): > 100 µM (inactive)
GI50 (MCF7): > 100 µM (inactive)
GI50 (MDA-MB-231): > 100 µM (inactive)
GI50 (MOLT-4): > 100 µM (inactive)
GI50 (NCI/ADR-RES): > 100 µM (inactive)
GI50 (OVCAR-5): > 100 µM (inactive)
GI50 (PC-3): > 100 µM (inactive)
GI50 (SNB-75): > 100 µM (inactive)
GI50 (T47D): > 100 µM (inactive)
GI50 (UACC-257): > 100 µM (inactive)

C1COC(NC(C2CC2)C2CC2)=N1 [RILMENIDINE]
GI50 (A498): > 100 µM (inactive)
GI50 (CCRF-CEM): > 100 µM (inactive)
GI50 (COLO 205): > 100 µM (inactive)
GI50 (DU-145): > 100 µM (inactive)
GI50 (EKVX): > 100 µM (inactive)
GI50 (HCT-15): > 100 µM
GI50 (HL-60): > 100 µM (inactive)
GI50 (HOP-92): > 100 µM (inactive)
GI50 (K562): > 100 µM (inactive)
GI50 (M14): > 100 µM (inactive)
GI50 (MCF7): > 100 µM (inactive)
GI50 (MDA-MB-231): > 100 µM (inactive)
GI50 (MOLT-4): > 100 µM (inactive)
GI50 (NCI/ADR-RES): > 100 µM (inactive)
GI50 (OVCAR-5): > 100 µM (inactive)
GI50 (PC-3): > 100 µM (inactive)
GI50 (SNB-75): 31.1 µM (inactive)
GI50 (T47D): > 100 µM (inactive)
GI50 (UACC-257): > 100 µM (inactive)

Cc1cnc2nc(-c3ccc(Cl)cc3)cc(O)c2c1
GI50 (A498): 5.48 µM (inactive)
GI50 (CCRF-CEM): 4.44 µM (inactive)
GI50 (COLO 205): 4.31 µM (inactive)
GI50 (DU-145): 11.1 µM (inactive)
GI50 (EKVX): 18.5 µM (inactive)
GI50 (HCT-15): 2.07 µM
GI50 (HL-60): 1.87 µM (inactive)
GI50 (HOP-92): 2.32 µM (inactive)
GI50 (K562): 1.07 µM (active)
GI50 (M14): 5.81 µM (inactive)
GI50 (MCF7): 4.48 µM (inactive)
GI50 (MDA-MB-231): 5.27 µM (inactive)
GI50 (MOLT-4): 3.31 µM (inactive)
GI50 (NCI/ADR-RES): 6.1 µM (inactive)
GI50 (OVCAR-5): 11.1 µM (inactive)
GI50 (PC-3): 2.12 µM (inactive)
GI50 (SNB-75): 5.14 µM (inactive)
GI50 (T47D): 43 µM (inactive)
GI50 (UACC-257): 11.5 µM (inactive)

CN(NC(=O)c1ccco1)C1=NCCN1
GI50 (A498): > 100 µM (inactive)
GI50 (CCRF-CEM): > 100 µM (inactive)
GI50 (COLO 205): > 100 µM (inactive)
GI50 (DU-145): > 100 µM (inactive)
GI50 (EKVX): > 100 µM (inactive)
GI50 (HCT-15): > 100 µM
GI50 (HL-60): > 100 µM (inactive)
GI50 (HOP-92): > 100 µM (inactive)
GI50 (K562): > 100 µM (inactive)
GI50 (M14): > 100 µM (inactive)
GI50 (MCF7): > 100 µM (inactive)
GI50 (MDA-MB-231): > 100 µM (inactive)
GI50 (MOLT-4): > 100 µM (inactive)
GI50 (NCI/ADR-RES): > 100 µM (inactive)
GI50 (OVCAR-5): > 100 µM (inactive)
GI50 (PC-3): > 100 µM (inactive)
GI50 (SNB-75): > 100 µM (inactive)
GI50 (T47D): > 100 µM (inactive)
GI50 (UACC-257): > 100 µM (inactive)

CC1=CC(=O)c2ccccc2C1=O [MENADIONE]
GI50 (A498): 22.6 µM (inactive)
GI50 (CCRF-CEM): 2.03 µM (inactive)
GI50 (COLO 205): 17.7 µM (inactive)
GI50 (DU-145): 15.9 µM (inactive)
GI50 (EKVX): 17.2 µM (inactive)
GI50 (HCT-15): 3.42 µM
GI50 (HL-60): 2 µM (inactive)
GI50 (HOP-92): 1.55 µM (inactive)
GI50 (K562): 2.38 µM (inactive)
GI50 (M14): 5.66 µM (inactive)
GI50 (MCF7): 8.34 µM (inactive)
GI50 (MDA-MB-231): 5.06 µM (inactive)
GI50 (MOLT-4): 1.77 µM (inactive)
GI50 (NCI/ADR-RES): 11.9 µM (inactive)
GI50 (OVCAR-5): 11.8 µM (inactive)
GI50 (PC-3): 3.61 µM (inactive)
GI50 (SNB-75): 10.2 µM (inactive)
GI50 (T47D): 2.01 µM (inactive)
GI50 (UACC-257): 4.17 µM (inactive)

Nc1ccc(-c2nc3ccccc3s2)cc1C(F)(F)F
GI50 (A498): 17.6 µM (inactive)
GI50 (CCRF-CEM): 21.1 µM (inactive)
GI50 (COLO 205): 18.1 µM (inactive)
GI50 (DU-145): 15.8 µM (inactive)
GI50 (EKVX): 11 µM (inactive)
GI50 (HCT-15): 13.4 µM
GI50 (HL-60): 12.5 µM (inactive)
GI50 (HOP-92): 16.3 µM (inactive)
GI50 (K562): 20 µM (inactive)
GI50 (M14): 14.9 µM (inactive)
GI50 (MCF7): 1.52 µM (inactive)
GI50 (MDA-MB-231): 13.2 µM (inactive)
GI50 (MOLT-4): 19.9 µM (inactive)
GI50 (NCI/ADR-RES): 17.7 µM (inactive)
GI50 (PC-3): 15.7 µM (inactive)
GI50 (SNB-75): 14.5 µM (inactive)
GI50 (T47D): 5.31 µM (inactive)
GI50 (UACC-257): 15.6 µM (inactive)

CC(=O)c1ccc2c(c1)CC1(C2)Cc2cc3c(c(C(=O)O)c2C1)CCC3 (centres undefined)
GI50 (A498): > 100 µM (inactive)
GI50 (CCRF-CEM): 81.8 µM (inactive)
GI50 (COLO 205): 53.1 µM (inactive)
GI50 (DU-145): > 100 µM (inactive)
GI50 (EKVX): > 100 µM (inactive)
GI50 (HCT-15): > 100 µM
GI50 (HL-60): > 100 µM (inactive)
GI50 (HOP-92): 22.6 µM (inactive)
GI50 (K562): 72.4 µM (inactive)
GI50 (MCF7): > 100 µM (inactive)
GI50 (MDA-MB-231): > 100 µM (inactive)
GI50 (MOLT-4): > 100 µM (inactive)
GI50 (NCI/ADR-RES): 80.5 µM (inactive)
GI50 (OVCAR-5): > 100 µM (inactive)
GI50 (PC-3): > 100 µM (inactive)
GI50 (SNB-75): 61.5 µM (inactive)
GI50 (T47D): 53.5 µM (inactive)
GI50 (UACC-257): > 100 µM (inactive)

CC(=O)NNc1nc(C)c(C(/C=C/c2ccc(NC(C)=O)cc2)=N/NS(=O)(=O)c2ccc(C)cc2)s1
GI50 (A498): > 100 µM (inactive)
GI50 (CCRF-CEM): > 100 µM (inactive)
GI50 (COLO 205): > 100 µM (inactive)
GI50 (DU-145): > 100 µM (inactive)
GI50 (EKVX): > 100 µM (inactive)
GI50 (HCT-15): > 100 µM
GI50 (HL-60): > 100 µM (inactive)
GI50 (HOP-92): > 100 µM (inactive)
GI50 (M14): > 100 µM (inactive)
GI50 (MCF7): > 100 µM (inactive)
GI50 (MDA-MB-231): > 100 µM (inactive)
GI50 (MOLT-4): > 100 µM (inactive)
GI50 (NCI/ADR-RES): > 100 µM (inactive)
GI50 (OVCAR-5): > 100 µM (inactive)
GI50 (PC-3): > 100 µM (inactive)
GI50 (SNB-75): > 100 µM (inactive)
GI50 (T47D): > 100 µM (inactive)
GI50 (UACC-257): > 100 µM (inactive)

COc1cc(C)c2c(c1C=O)Oc1c(c(C)c(O)c3c1C(O)OC3=O)OC2=O (centres undefined) [STICTIC ACID]
GI50 (A498): 31.2 µM (inactive)
GI50 (CCRF-CEM): > 10 µM (inactive)
GI50 (COLO 205): 28.3 µM (inactive)
GI50 (DU-145): 87.5 µM (inactive)
GI50 (EKVX): 32.6 µM (inactive)
GI50 (HCT-15): 17.6 µM
GI50 (HL-60): 23.3 µM (inactive)
GI50 (HOP-92): 99.3 µM (inactive)
GI50 (M14): 37.4 µM (inactive)
GI50 (MCF7): 22.4 µM (inactive)
GI50 (MDA-MB-231): 23.3 µM (inactive)
GI50 (MOLT-4): 17.6 µM (inactive)
GI50 (NCI/ADR-RES): 37.2 µM (inactive)
GI50 (OVCAR-5): > 100 µM (inactive)
GI50 (PC-3): 34.4 µM (inactive)
GI50 (SNB-75): 26.6 µM (inactive)
GI50 (T47D): 17.6 µM (inactive)
GI50 (UACC-257): 47.9 µM (inactive)

C/C=C/OC1C(C2COC(C)(C)O2)OC2OC(C)(C)OC21 (centres undefined)
GI50 (A498): > 100 µM (inactive)
GI50 (CCRF-CEM): > 100 µM (inactive)
GI50 (DU-145): > 100 µM (inactive)
GI50 (EKVX): > 100 µM (inactive)
GI50 (HCT-15): > 100 µM
GI50 (HL-60): > 100 µM (inactive)
GI50 (HOP-92): > 100 µM (inactive)
GI50 (K562): > 100 µM (inactive)
GI50 (M14): > 100 µM (inactive)
GI50 (MCF7): > 100 µM (inactive)
GI50 (MDA-MB-231): > 100 µM (inactive)
GI50 (MOLT-4): > 100 µM (inactive)
GI50 (NCI/ADR-RES): > 100 µM (inactive)
GI50 (OVCAR-5): > 100 µM (inactive)
GI50 (PC-3): > 100 µM (inactive)
GI50 (SNB-75): > 100 µM (inactive)
GI50 (T47D): > 100 µM (inactive)
GI50 (UACC-257): > 100 µM (inactive)
